Measured values: publication PMC5689168 (Biochemistry and Biophysics Reports, 2016)
Values joined by “and” are separate entries in the source; they are usually repeats but may differ in a detail not shown here. Equal entries are not always repeated. “Also recorded” adds a separate entry of the source. Where two headings read alike, the source gives them in different places. Each block holds one molecule with its values, some of them ahead of it.

Legend:
[1] = target: α1β2γ2 GABAA receptors (Rattus norvegicus, UniProt P62813+P63138); type: cell-based, rat α1, rat β2, murine γ2
α1β2γ2 GABAA receptors, sequence (P62813 28-455): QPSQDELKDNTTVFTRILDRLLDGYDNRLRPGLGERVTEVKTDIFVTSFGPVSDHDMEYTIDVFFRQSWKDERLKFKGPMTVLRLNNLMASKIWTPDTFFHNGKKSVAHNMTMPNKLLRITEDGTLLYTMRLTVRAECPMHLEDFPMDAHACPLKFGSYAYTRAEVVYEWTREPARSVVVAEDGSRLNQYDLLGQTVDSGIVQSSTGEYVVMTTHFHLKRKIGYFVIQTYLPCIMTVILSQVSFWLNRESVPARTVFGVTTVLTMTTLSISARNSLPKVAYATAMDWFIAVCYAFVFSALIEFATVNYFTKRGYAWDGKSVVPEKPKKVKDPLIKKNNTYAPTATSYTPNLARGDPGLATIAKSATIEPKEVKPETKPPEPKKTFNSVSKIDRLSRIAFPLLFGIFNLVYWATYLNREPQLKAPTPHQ
α1β2γ2 GABAA receptors, sequence (P63138 25-474 limits assumed): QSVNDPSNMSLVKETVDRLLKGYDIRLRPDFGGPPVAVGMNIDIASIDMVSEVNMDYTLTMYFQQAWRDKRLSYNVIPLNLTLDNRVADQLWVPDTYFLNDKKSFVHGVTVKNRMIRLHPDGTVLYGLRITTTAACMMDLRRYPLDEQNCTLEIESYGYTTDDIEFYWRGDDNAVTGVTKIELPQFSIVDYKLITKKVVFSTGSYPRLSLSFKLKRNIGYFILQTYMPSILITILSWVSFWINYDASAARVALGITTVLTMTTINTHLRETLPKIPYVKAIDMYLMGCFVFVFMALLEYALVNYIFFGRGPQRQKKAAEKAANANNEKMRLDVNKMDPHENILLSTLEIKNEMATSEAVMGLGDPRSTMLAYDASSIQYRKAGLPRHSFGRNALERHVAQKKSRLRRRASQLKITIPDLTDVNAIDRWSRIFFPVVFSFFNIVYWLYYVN
α1β2γ2 GABAA receptors, sequence (P22723 39-474 partner): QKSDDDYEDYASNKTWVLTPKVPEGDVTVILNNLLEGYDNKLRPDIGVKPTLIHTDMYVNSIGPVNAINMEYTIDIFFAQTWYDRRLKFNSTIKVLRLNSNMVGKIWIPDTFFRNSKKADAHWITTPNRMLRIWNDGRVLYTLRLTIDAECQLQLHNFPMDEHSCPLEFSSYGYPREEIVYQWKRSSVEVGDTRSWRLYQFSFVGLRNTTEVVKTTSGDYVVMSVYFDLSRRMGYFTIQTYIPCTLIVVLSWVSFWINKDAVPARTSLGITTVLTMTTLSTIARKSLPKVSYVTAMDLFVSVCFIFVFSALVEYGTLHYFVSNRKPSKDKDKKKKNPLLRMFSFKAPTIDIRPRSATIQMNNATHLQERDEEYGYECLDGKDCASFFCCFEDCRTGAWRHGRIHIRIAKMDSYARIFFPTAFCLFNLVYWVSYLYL

[2] = target: α1β2(M286W)γ2 GABAA receptors (Rattus norvegicus, UniProt P62813+P63138, M310W); assay: Two-electrode voltage clamp on Xenopus laevis oocytes expressing mutant α1β2; type: cell-based, rat α1, rat β2, murine γ2
α1β2(M286W)γ2 GABAA receptors, sequence (P62813 28-455): as the sequence (P62813 28-455) above
α1β2(M286W)γ2 GABAA receptors, sequence (P63138 25-474 M310W limits assumed): as the sequence (P63138 25-474 limits assumed) above, with M286W counted along it
α1β2(M286W)γ2 GABAA receptors, sequence (P22723 39-474 partner): as the sequence (P22723 39-474 partner) above

[3] = target: α1β2(N265M)γ2 GABAA receptors (Rattus norvegicus, UniProt P62813+P63138, N289M); assay: as above; type: cell-based, rat α1, rat β2, murine γ2
α1β2(N265M)γ2 GABAA receptors, sequence (P62813 28-455): as the sequence (P62813 28-455) above
α1β2(N265M)γ2 GABAA receptors, sequence (P63138 25-474 N289M limits assumed): as the sequence (P63138 25-474 limits assumed) above, with N265M counted along it
α1β2(N265M)γ2 GABAA receptors, sequence (P22723 39-474 partner): as the sequence (P22723 39-474 partner) above

[4] = tested on: 5HT3A receptor; conditions: cited from earlier work
[5] = target: α1β3γ2 GABAA receptors (UniProt P28472+P62813); type: cell-based, rat α1, human β3, murine γ2
α1β3γ2 GABAA receptors, sequence (P62813 28-455): as the sequence (P62813 28-455) above
α1β3γ2 GABAA receptors, sequence (P28472 26-473): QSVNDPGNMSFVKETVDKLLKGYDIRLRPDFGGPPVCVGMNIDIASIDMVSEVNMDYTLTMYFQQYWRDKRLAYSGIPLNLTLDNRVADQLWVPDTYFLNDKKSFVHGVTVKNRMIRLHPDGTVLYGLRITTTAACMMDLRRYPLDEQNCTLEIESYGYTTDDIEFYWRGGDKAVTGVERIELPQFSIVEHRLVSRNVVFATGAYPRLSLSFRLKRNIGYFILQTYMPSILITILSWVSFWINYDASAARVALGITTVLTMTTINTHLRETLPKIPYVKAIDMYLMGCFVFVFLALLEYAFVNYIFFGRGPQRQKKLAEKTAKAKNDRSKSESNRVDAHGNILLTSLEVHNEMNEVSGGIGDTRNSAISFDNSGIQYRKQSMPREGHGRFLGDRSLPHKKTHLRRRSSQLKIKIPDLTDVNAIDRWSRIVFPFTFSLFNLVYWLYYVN
α1β3γ2 GABAA receptors, sequence (P22723 39-474 partner): as the sequence (P22723 39-474 partner) above

[6] = target: α1β1γ2 GABAA receptors (Rattus norvegicus, UniProt P15431+P62813); type: cell-based, rat α1, rat β1, murine γ2
α1β1γ2 GABAA receptors, sequence (P62813 28-455): as the sequence (P62813 28-455) above
α1β1γ2 GABAA receptors, sequence (P15431 26-474): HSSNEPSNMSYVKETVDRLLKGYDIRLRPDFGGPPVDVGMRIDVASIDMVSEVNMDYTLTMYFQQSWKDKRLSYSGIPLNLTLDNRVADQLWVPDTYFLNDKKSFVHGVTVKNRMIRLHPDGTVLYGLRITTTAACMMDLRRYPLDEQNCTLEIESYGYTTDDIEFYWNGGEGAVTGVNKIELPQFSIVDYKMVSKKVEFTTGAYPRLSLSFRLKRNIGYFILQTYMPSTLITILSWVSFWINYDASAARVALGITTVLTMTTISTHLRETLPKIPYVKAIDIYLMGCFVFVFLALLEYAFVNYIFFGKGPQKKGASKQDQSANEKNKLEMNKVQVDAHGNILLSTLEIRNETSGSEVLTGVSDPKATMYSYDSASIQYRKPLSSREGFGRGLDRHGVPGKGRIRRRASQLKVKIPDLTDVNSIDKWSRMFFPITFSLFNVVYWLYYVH
α1β1γ2 GABAA receptors, sequence (P22723 39-474 partner): as the sequence (P22723 39-474 partner) above

[7] = target: α1β2 GABAA receptor (Rattus norvegicus, UniProt P62813+P63138); type: cell-based, rat α1, rat β2
α1β2 GABAA receptor, sequence (P62813 28-455): as the sequence (P62813 28-455) above
α1β2 GABAA receptor, sequence (P63138 25-474 limits assumed): as the sequence (P63138 25-474 limits assumed) above

[8] = cited from earlier work
[9] = target: α1β2γ2 receptors; conditions: read-out: EC50 for potentiation; cited from earlier work

- EC50 ([1]; Modulatory EC50, α1β2γ2, potentiation of current evoked by 3 µM GABA): 6 µM and 6.3 µM
- Concentration at which potentiation of GABA-induced currents starts ([1]; α1β2γ2, 3 µM GABA): 1 µM
- Concentration of maximal potentiation ([1]; α1β2γ2, 3 µM GABA): approximately 30 µM
- Potentiating action of 30 µM glabridin in the presence of flumazenil ([1]; α1β2γ2, 3 µM GABA, 30 µM glabridin, 1 µM flumazenil): not significantly altered
- Fold decrease of GABA EC50 ([1]; α1β2γ2, 30 µM glabridin): 12 fold and 12.3 fold
- Direct activation by 30 µM glabridin ([1]; α1β2γ2, 30 µM glabridin in the absence of GABA, normalized to GABA current): 0.07±0.02
- Fold potentiation by 30 µM glabridin ([1]; α1β2γ2, 30 µM glabridin, 3 µM GABA): 6.20±1.41 fold
- Fold decrease of GABA EC50 ([1]; α1β2γ2, 30 µM glabridin, listed as Glabridin): approximately 12 fold
- Direct activation, share of the maximally evoked current by saturating GABA concentrations ([1]; α1β2γ2, 100 µM glabridin in the absence of GABA, n=4): up to 17±7%
- Direct activation at lower concentrations ([1]; α1β2γ2, glabridin up to 10 µM in the absence of GABA): failed to activate
- Threshold concentration for direct activation ([1]; α1β2γ2, in the absence of GABA): 30 µM
- Maximally induced current evoked by 1 mM GABA ([1]; α1β2γ2, with 30 µM glabridin, p=0.055, n=4): not significantly altered
- Fold decrease of GABA EC50 ([2]; 30 µM glabridin): 0.75 fold
- Fold potentiation by 30 µM glabridin ([2]; 30 µM glabridin, 3 µM GABA): 1.04±0.05 fold
- EC50 [3]: 32.6 ± 1.52 µM
- Fold decrease of GABA EC50 ([3]; α1β2(N265M)γ2, 30 µM glabridin): 3.5 fold
- EC50 [5]: 6.83 ± 3.07 µM
- Fold decrease of GABA EC50 ([5]; α1β3γ2, 30 µM glabridin): 6.8 fold
- Direct activation by 30 µM glabridin ([5]; α1β3γ2, 30 µM glabridin in the absence of GABA, normalized to GABA current): 0.08±0.04
- Fold potentiation by 30 µM glabridin ([5]; α1β3γ2, 30 µM glabridin, 10 µM GABA): 2.63±0.42 fold
- EC50 [6]: 17.2 ± 2.64 µM
- Fold decrease of GABA EC50 ([6]; α1β1γ2, 30 µM glabridin): 4.4 fold
- Direct activation by 30 µM glabridin ([6]; α1β1γ2, 30 µM glabridin in the absence of GABA, normalized to GABA current): 0.14±0.08
- Fold potentiation by 30 µM glabridin ([6]; α1β1γ2, 30 µM glabridin, 1 µM GABA): 5.07±1.45 fold
- EC50 [7]: 9.63 ± 0.7 µM
- Fold decrease of GABA EC50 ([7]; α1β2, 30 µM glabridin): 1.8 fold
- Direct activation by 30 µM glabridin ([7]; α1β2, 30 µM glabridin in the absence of GABA, normalized to GABA current): 0.11±0.05
- Fold potentiation by 30 µM glabridin ([7]; α1β2, 30 µM glabridin, 3 µM GABA): 4.23±0.56 fold
Compound: CC1(C)C=Cc2c(ccc3c2OC[C@@H](c2ccc(O)cc2O)C3)O1 [glabridin]
- Screening for potentiation of GABA-induced currents ([1]; α1β2γ2, components of Glycyrrhiza at 10 µM, n=3–4): the only potentiator of the tested substances
- Modulatory EC50 ([2]; potentiation of current evoked by 3 µM GABA): Neither a potentiating effect nor any shift; also recorded: no potentiation
- Action on 5HT3A receptor channel [4]: blocker of the channel
- Crossing of the blood-brain-barrier [8]: able to cross the blood-brain-barrier

Compound: CC(C)c1cccc(C(C)C)c1O [propofol]
- EC50 [9]: ~2 µM
